In patent US9561265B2, “KIF20A epitope peptides for TH1 cells and vaccines containing the same” (ONCOTHERAPY SCIENCE, INC., priority 2012, dated 2017):

How the values were obtained:
[1] = tested on: KIF20A-A24 (66-75)-specific CD8^+ T cells; experiment: Stimulation of PBMC with the KIF20A long peptide (tetramer staining, IFN-gamma ELISPOT); format: cell-based, human
Description: The immune response of Th cells to APCs pulsed with peptides and proteins were assessed by IFN-gamma ELISPOT assays (Human IFN-gamma ELISPOT kit, BD Biosciences) as described previously (Tomita Y, et al. Cancer Sci; 102: 697-705.). Briefly, the frequency of peptide-specific CD4^+ T cells producing IFN-gamma per 3×10^4 bulk CD4^+ T cells upon stimulation with peptide-pulsed PBMCs (3×10^4), or 1×10^4 bulk CD4^+ T cells upon stimulation with peptide-pulsed L-cells (5×10^4/well) expressing HLA-DR was analyzed. The frequency of cells producing IFN-gamma per 1×10^5 CTLs upon stimulation with peptide-pulsed T2 cells (2×10^4/well) or C1R-A2402 cells (2×10^4/well) was also analyzed. Alternatively, 5×10^3 protein-loaded DCs were co-cultured with 2×10^4 CD4^+ T cell clones/well. The protein-loaded mature DCs were prepared from positively isolated CD14^+ cells (day 0) as described previously (Harao M, et al. Int J Cancer 2008; 123: 2616-25.). On day 5, the DCs were cultured in the presence of the recombinant KIF20A (50 micro-g/ml) and OK432. The protein-loaded mature DCs were harvested on day 7, washed and used as stimulator in IFN-gamma ELISPOT assays. To determine restriction HLA molecules involved in antigen presentation, blocking of antigen-induced IFN-gamma production was investigated by adding anti-HLA-DR mAb (L243, Biolegend), anti-HLA-DP mAb, (B7/21, abcam), anti-human HLA-DQ mAb (SPV-L3, abcam), or anti-HLA class I mAb, (W6/32, abcam). All mAbs were used at a final concentration of 5 micro g/ml. All assessments of IFN-gamma ELISPOT assays were carried out in duplicate or triplicate, and results corresponded to mean values.
To assess the induction of KIF20A-A24 (66-75) SP-specific CTLs from HLA-A24-positive donors by the simulation with KIF20A (60-84) LP in vitro, PBMC (2×10^6/well of 24-well plates) were incubated with KIF20A-derived LPs (7 micro-M) for 2 weeks without addition of any cytokine. On day 0 and 7, KIF20A-derived LPs (7 micro-M) was added, then on day 14 of in vitro stimulation with LPs, the cells were harvested, stained with a PE-labeled tetramer of the HLA-A*24:02/KIF20A-A24 (66-75) peptide complex in combination with a FITC-labeled anti-human CD8 mAb, and analyzed by flow cytometry.

[2] = tested on: KIF20A-A24 (66-75) SP-specific CD8^+ T-cells; experiment: Expansion and CD107a expression of KIF20A-A24 (66-75) SP-specific CTLs cultured with LP-specific Th cells; format: cell-based, human; settings: donor HDK5
Description: [FIG. 7C-D] In Part C, CD107a expression of KIF20A-A24 (66-75) SP-specific CD8^+ T-cells expanded by activated KIF20A (809-833) LP-specific Th cells. KIF20A (809-833) LP-specific bulk CD4^+ T-cells and KIF20A-A24 (66-75) SP-specific bulk CD8^+ T-cells derived from HLA-A24^+/DR15^+ (HDK5) were cultured with autologous DCs in the presence of KIF20A-A24 (66-75) SP (SP alone), KIF20A-A24 (66-75) SP+Control LP (Control LP+SP), or KIF20A-A24 (66-75) SP+KIF20A (809-833) LP (KIF20A (809-833)-LP+SP) without addition of any cytokine. After 1-week in vitro culture with peptides, the cultured cells were stained with PE-labeled tetramer of the HLA-A*24:02/KIF20A-A24 (67-75) complex and PerCP-labeled anti-human CD8 mAb. Data are presented as the mean+/−SD of triplicate assays. Representative data from 3 independent experiments with similar results are shown. In Part D, After 1-week in vitro culture with peptides, the cultured cells were re-stimulated with KIF20A-A24 (66-75) SP and stained with PE-labeled tetramer of the HLA-A*24:02/KIF20A-A24 (67-75) complex, FITC-labeled anti-human CD107a mAb, and PerCP-labeled anti-human CD8 mAb. The absolute number of KIF20A-A24 (66-75) SP-specific CTLs expressing CD107a on the cell surface after re-stimulation with KIF20A-A24 (66-75) SP was shown. Data are presented as the mean+/−SD of triplicate assays. […]

DSMEKVKVYLRVRPLLPSELERQED [KIF20A (60-84)]
Expansion of HLA-A24-restricted KIF20A-A24 (66-75) SP-specific CD8^+ T cells (tetramer labeling) ([1]; PBMC stimulated twice with 7 micro-M peptide, day 14): induced an expansion
Absolute numbers of CD8^+ tetramer^+ cells ([1]; PBMC stimulated with peptide, HLA-A24-positive donor): significantly increased

CIAEQYHTVLKLQGQVSAKKRLGTN [KIF20A (809-833)]
Absolute number of KIF20A-A24 (66-75) SP-specific CTLs expressing CD107a ([2]; SP+LP culture, after re-stimulation with SP): significantly augmented
Absolute number of KIF20A-A24 (66-75) SP-specific CD8^+ T-cells ([2]; SP+LP with LP-specific bulk CD4+ T-cells and autologous DCs, 1 week, vs SP alone or Control LP+SP): significantly increased
